Data taken from article PMC11280390, “Synthesis of Nitrostyrylthiazolidine-2,4-dione Derivatives Displaying Antileishmanial Potential” (Pharmaceuticals, 2024).
Like-named read-outs stand apart in the source and are kept apart here.

Experiments:
[1] = In vitro cytotoxicity on the human hepatic HepG2 cell line (MTT, 72 h); details: human, HepG2 cells (hepatocarcinoma cell line, ATCC HB-8065), HepG2 Cytotoxicity CC50, HepG2, 72 h, MTT
Procedure: (§1) HepG2 cell line (hepatocarcinoma cell line purchased from ATCC, ref HB-8065) was maintained at 37 °C, 5% CO2 with 90% humidity in MEM supplemented with 10% fetal bovine serum, 1% L-glutamine (200 mM) and penicillin (100 U/mL)/streptomycin ([…]) (complete MEM medium). The tested molecules’ cytotoxicity was assessed according to the method of Mosmann with slight modifications. Briefly, 5 × 10^3 cells in 100 μL of complete medium were inoculated into each well of 96-well plates and incubated at 37 °C in a humidified 5% CO2. After 24 h incubation, 100 μL of medium with various product concentrations dissolved in DMSO (final concentration less than 0.5% v/v) were added and the plates were incubated for 72 h at 37 °C. Triplicate assays were performed for each sample. Each plate well was then microscope-examined to detect possible precipitate formation before the medium was aspirated from the wells. Then, 100 μL of MTT (3-(4,5-dimethyl-2-thiazolyl)-2,5-diphenyl-2H-tetrazolium bromide) solution (0.5 mg/mL in medium without FCS) were then added to each well. Cells were incubated for 2 h at 37 °C, following which the MTT solution was removed and DMSO (100 μL) was added to dissolve the resulting blue formazan crystals. Plates were shaken vigorously (700 rpm) for 10 min. The absorbance was measured at 570 nm with 630 nm as reference wavelength using a TECAN Infinite F-200 spectrophotometer (Tecan Trading AG, Männedorf, Switzerland). DMSO was used as blank and doxorubicin (purchased from Sigma Aldrich, Saint Louis, MI, USA) as positive control. Cell viability was calculated as a percentage of control (cells incubated without compound). […] CC50 values represent the mean value calculated from three separate experiments.

HepG2 cell line = assay: as above; details: for Selectivity INDEX (SI = CC50/EC50): HepG2 CC50 / L. infantum promastigote EC50
Procedure: as §1

[2] = tested on: Leishmania infantum promastigotes; assay: In vitro antileishmanial activity on L. infantum promastigotes (MTT, 72 h); type: cell-based; details: L. infantum promastigotes, MTT, read-out: Anti-L. infantum Promastigote Activity EC50
Procedure: Luciferase-expressing Leishmania infantum was kindly provided by Professor Thierry Lang of the Institut Pasteur. L. infantum promastigotes were routinely grown at 27 °C in Schneider’s Drosophila Medium (Dominique […] SAS, Bernolsheim, France) supplemented with 10% fetal calf serum, 2% human urine, sodium pyruvate 0.04 mM, hemin 0.1 µg/mL, HEPES 5 mM, streptomycin 100 µg/mL, penicillin 100 U/mL, L-glutamine 2 mM (culture medium). The in vitro evaluation of the antileishmanial activity of the tested compound on L. infantum promastigotes forms was assessed according to the Mosmann protocol with slight modifications. […] Appropriate controls treated with DMSO, Miltefosine, Amphotericin B and Fexinidazole sulfone (reference drugs purchased from Sigma-Aldrich, Saint-Louis, MO, USA) were added to each set of experiments. The plates were incubated at 27 °C for 72 h, Then, each plate-well was microscope-analyzed to detect any precipitate formation. Afterward, 20 µL of MTT (3-(4,5-dimethylthiazol-2-yl)-2,5-diphenyltetrazolium bromide) (Sigma-Aldrich, Saint-Louis, MI, USA) solution (5 mg/mL in PBS) were added to each well and incubated at 27 °C for 4 h. The reaction was then stopped by the addition of 100 µL of 10% sodium dodecyl sulfate—50% isopropanol. Plates were shaken vigorously at 400 rpm for 10 min. […] EC50 values represent the mean value calculated from at least three separate experiments.

| melting point | SMILES | also measured |
| --- | --- | --- |
| 215 to 216 °C | COc1ccc(NC(=O)CN2C(=O)S/C(=C\c3cc(OC)c(OC)c(OC)c3)C2=O)cc1 [Compound 25e, (Z)-N-(4-Methoxyphenyl)-2-(5-(3,4,5-trimethoxybenzylidene)thiazolidine-2,4-dion-3-yl)acetamide] |  |
| 230 to 232 °C | N#CCN1C(=O)S/C(=C\c2ccccc2)C1=O [Compound 14a, (Z)-2-(5-Benzylidenethiazolidine-2,4-dion-3-yl)acetonitrile] |  |
| 232 to 233 °C | O=C(CN1C(=O)S/C(=C\c2ccc([N+](=O)[O-])cc2)C1=O)c1ccccc1 [Compound 16d, (Z)-5-(4-Nitrobenzylidene)-3-(2-oxo-2-phenylethyl)thiazolidine-2,4-dione] |  |
| 274 to 275 °C (dec.) | COc1cc(/C=C2\SC(=O)N(CC(N)=O)C2=O)cc(OC)c1OC [Compound 15e] |  |
| 119 to 120 °C | N#CCN1C(=O)S/C(=C\c2ccccc2[N+](=O)[O-])C1=O [Compound 14b, (Z)-2-(5-(2-Nitrobenzylidene)thiazolidine-2,4-dion-3-yl)acetonitrile] |  |
| 139 to 140 °C | COc1cc(/C=C2\SC(=O)N(CC(C)=O)C2=O)cc(OC)c1OC [Compound 13e] |  |
|  | O=C1NC(=O)/C(=C/c2cccc([N+](=O)[O-])c2)S1 [Compound 4] | CC50 at 72 h [1]: 190 ± 18.6 µM; Selectivity INDEX (SI = CC50/EC50) (HepG2 cell line): 6.8; EC50 ([2]; Leishmania infantum): 28 ± 7.15 µM |
| 254 to 256 °C | COc1ccc(NC(=O)CN2C(=O)S/C(=C\c3ccc([N+](=O)[O-])cc3)C2=O)cc1 [Compound 25d, (Z)-N-(4-Methoxyphenyl)-2-(5-(4-nitrobenzylidene)thiazolidine-2,4-dion-3-yl)acetamide] |  |
| 259 to 261 °C | O=C(CN1C(=O)S/C(=C\c2ccc([N+](=O)[O-])cc2)C1=O)Nc1ccccc1 [Compound 23d, (Z)-2-(5-(4-Nitrobenzylidene)thiazolidine-2,4-dion-3-yl)-N-phenylacetamide] |  |
| 185 to 187 °C | COc1cc(/C=C2\SC(=O)NC2=O)cc(OC)c1OC [Compound 6] |  |
| 229 to 231 °C | NC(=O)CN1C(=O)S/C(=C\c2ccccc2)C1=O [Compound 15a, (Z)-2-(5-Benzylidenethiazolidine-2,4-dion-3-yl)acetamide] |  |
| 207 to 209 °C | CC(=O)CN1C(=O)S/C(=C\c2ccc([N+](=O)[O-])cc2)C1=O [Compound 13d, (Z)-5-(4-Nitrobenzylidene)-3-(2-oxopropyl)thiazolidine-2,4-dione] |  |
| 196 to 198 °C | COc1cc(/C=C2\SC(=O)N(CC(=O)Nc3ccc(C)cc3)C2=O)cc(OC)c1OC [Compound 24e, (Z)-N-(4-Methylphenyl)-2-(5-(3,4,5-trimethoxybenzylidene)thiazolidine-2,4-dion-3-yl)acetamide] |  |
|  | CCOC(=O)CN1C(=O)S/C(=C\c2ccccc2)C1=O [Compound 12a] | CC50 at 72 h [1]: 194 ± 8.92 µM; Selectivity INDEX (SI = CC50/EC50) (HepG2 cell line): 9.4; EC50 ([2]; Leishmania infantum): 20.6 ± 5.86 µM |
| 243 to 245 °C | O=C(CN1C(=O)S/C(=C\c2ccccc2)C1=O)Nc1ccccc1Cl [Compound 28a, (Z)-2-(5-Benzylidenethiazolidine-2,4-dion-3-yl)-N-(2-chlorophenyl)acetamide] |  |
| 146 to 148 °C | CC(=O)CN1C(=O)S/C(=C\c2ccccc2[N+](=O)[O-])C1=O [Compound 13b, (Z)-5-(2-Nitrobenzylidene)-3-(2-oxopropyl)thiazolidine-2,4-dione] |  |
| 281 to 283 °C | NC(=O)CN1C(=O)S/C(=C\c2ccc([N+](=O)[O-])cc2)C1=O [Compound 15d, (Z)-2-(5-(4-Nitrobenzylidene)thiazolidine-2,4-dion-3-yl)acetamide] |  |
|  | O=C1NC(=O)/C(=C/c2ccc([N+](=O)[O-])cc2)S1 [Compound 5] | CC50 at 72 h [1]: 137.1 ± 1.22 µM; Selectivity INDEX (SI = CC50/EC50) (HepG2 cell line): 9.4; EC50 [2]: 14.6 ± 2.9 µM |
| 222 to 223 °C | COc1cc(/C=C2\SC(=O)N(CC(=O)Nc3ccccc3Cl)C2=O)cc(OC)c1OC [Compound 28e, (Z)-N-(2-Chlorophenyl)-2-(5-(3,4,5-trimethoxybenzylidene)thiazolidine-2,4-dion-3-yl)acetamide] |  |
|  | CCOC(=O)CN1C(=O)S/C(=C\c2cccc([N+](=O)[O-])c2)C1=O [Compound 12c, Ethyl ((Z)-5-(3-nitrobenzylidene)thiazolidine-2,4-dion-3-yl)acetate] | CC50 at 72 h [1]: 101 to 125 µM; Selectivity INDEX (SI = CC50/EC50) (HepG2 cell line): >22.7; CC50 (HepG2 cell line; read-out: HepG2 Cytotoxicity CC50, HepG2, 72 h, MTT): > 125 µM; EC50 ([2]; Leishmania infantum): 5.51 ± 1.29 µM |
| 187 to 189 °C | COc1cc(/C=C2\SC(=O)N(CC(=O)c3ccccc3)C2=O)cc(OC)c1OC [Compound 16e, (Z)-3-(2-Oxo-2-phenylethyl)-5-(3,4,5-trimethoxybenzylidene)thiazolidine-2,4-dione] |  |
| 253 to 254 °C | COc1cc(/C=C2\SC(=O)N(CC(=O)Nc3ccc([N+](=O)[O-])cc3)C2=O)cc(OC)c1OC [Compound 26e, (Z)-N-(4-Nitrophenyl)-2-(5-(3,4,5-trimethoxybenzylidene)thiazolidine-2,4-dion-3-yl)acetamide] |  |
| 188 to 190 °C | CC(=O)CN1C(=O)S/C(=C\c2cccc([N+](=O)[O-])c2)C1=O [Compound 13c, (Z)-5-(3-Nitrobenzylidene)-3-(2-oxopropyl)thiazolidine-2,4-dione] |  |
| 233 to 235 °C | NC(=O)CN1C(=O)S/C(=C\c2ccccc2[N+](=O)[O-])C1=O [Compound 15b, (Z)-2-(5-(2-Nitrobenzylidene)thiazolidine-2,4-dion-3-yl)acetamide] |  |
| 255 to 257 °C | O=C(CN1C(=O)S/C(=C\c2cccc([N+](=O)[O-])c2)C1=O)Nc1ccccc1 [Compound 23c, (Z)-2-(5-(3-Nitrobenzylidene)thiazolidine-2,4-dion-3-yl)-N-phenylacetamide] |  |
| 259 to 260 °C | O=C(CN1C(=O)S/C(=C\c2ccccc2)C1=O)Nc1ccccc1 [Compound 23a] |  |
| 145 to 147 °C | CCOC(=O)CN1C(=O)S/C(=C\c2cc(OC)c(OC)c(OC)c2)C1=O [Compound 12e] |  |
| 270 to 272 °C | O=C(CN1C(=O)S/C(=C\c2ccccc2)C1=O)Nc1ccc([N+](=O)[O-])cc1 [Compound 26a, (Z)-2-(5-Benzylidenethiazolidine-2,4-dion-3-yl)-N-(4-nitrophenyl)acetamide] |  |
| 139 to 140 °C | CC(=O)CN1C(=O)S/C(=C\c2ccccc2)C1=O [Compound 13a, (Z)-5-Benzylidene-3-(2-oxopropyl)thiazolidine-2,4-dione] |  |
| 182 to 183 °C | O=C(CN1C(=O)S/C(=C\c2ccccc2)C1=O)c1ccccc1 [Compound 16a] |  |

| SMILES | melting point | also measured |
| --- | --- | --- |
| COc1ccc(NC(=O)CN2C(=O)S/C(=C\c3ccccc3[N+](=O)[O-])C2=O)cc1 [Compound 25b, (Z)-2-(5-(2-Nitrobenzylidene)thiazolidine-2,4-dion-3-yl)-N-(4-methoxyphenyl) acetamide] | 204 to 205 °C | CC50 at 72 h [1]: 23.3 ± 2.93 µM; Selectivity INDEX (SI = CC50/EC50) (HepG2 cell line): 1.1; EC50 ([2]; Leishmania infantum): 22.3 ± 4.93 µM |
| COc1cc(/C=C2\SC(=O)N(CC(=O)Nc3ccc(Cl)cc3)C2=O)cc(OC)c1OC [Compound 27e, (Z)-N-(4-Chlorophenyl)-2-(5-(3,4,5-trimethoxybenzylidene)thiazolidine-2,4-dion-3-yl)acetamide] | 218 to 219 °C | CC50 at 72 h [1]: 19.4 ± 2.05 µM; Selectivity INDEX (SI = CC50/EC50) (HepG2 cell line): 3.9; EC50 ([2]; Leishmania infantum): 5 ± 1.98 µM |
| O=C(O)CN1C(=O)S/C(=C\c2cccc([N+](=O)[O-])c2)C1=O [Compound 29, (Z)-2-(5-(3-Nitrobenzylidene)thiazolidin-2,4-dion-3-yl)acetic Acid] | 191 to 193 °C | CC50 at 72 h [1]: > 250 µM; EC50 ([2]; Leishmania infantum): > 50 µM |
